Assay results from patent US10294202B2, “Pyrrolidinones as herbicides” (FMC Corporation, priority 2013, dated 2019).

What was measured:
giant foxtail = assay: Test A pre-/postemergence herbicide test; type: in vivo, Setaria faberii
Procedure, shortened: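 Seeds sown in loam soil/sand blend received a preemergence directed soil spray of test chemical in non-phytotoxic solvent with surfactant; postemergence plants (2–10 cm, one- to two-leaf stage) were sprayed with the same formulation. After about 10 days in greenhouse, injury was rated visually versus untreated controls, 0 (no effect) to 100 (complete control).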

barnyardgrass [1] = assay: Test C flooded paddy test; type: in vivo, Echinochloa crus-galli; conditions: Flood
Procedure, shortened: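 Visual injury scored against controls after 13 to 15 days in the greenhouse, using 0 (no effect) to 100 (complete control). Test compounds went straight into paddy water held 3 cm above the soil surface on 2-leaf-stage plants, with that flood depth maintained for the whole test.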

barnyardgrass [2] = assay: Test B flooded paddy test; type: in vivo, Echinochloa crus-galli; conditions: Flood, scale of 0 to 100 where 0 is no effect and 100 is complete control
Procedure, shortened: (§1)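 First, plants reach the 2-leaf stage; next, pots are flooded to 3 cm and compound is delivered into the water; finally, after 13 to 15 greenhouse days at constant depth, injury is graded visually from 0 to 100 against controls.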

waterhemp = assay: Test C pre-/postemergence herbicide test; type: in vivo, Amaranthus rudis
Excerpt: Seeds of plant species selected from blackgrass (Alopecurus myosuroides), ryegrass, Italian (Italian ryegrass, Lolium multiflorum), wheat (winter wheat, Triticum aestivum), galium (catchweed bedstraw, Galium aparine), corn (Zea mays), crabgrass, large (large crabgrass, Digitaria sanguinalis), foxtail, giant (giant foxtail, Setaria faberii), johnsongrass (Sorghum halepense), lambsquarters (Chenopodium album), morningglory (Ipomoea coccinea), nutsedge, yellow (yellow nutsedge, Cyperus esculentus), pigweed (Amaranthus retroflexus), ragweed (common ragweed, Ambrosia elatior), soybean (Glycine max), barnyardgrass (Echinochloa crus-galli), oilseed rape (Brassica napus), waterhemp (common waterhemp, Amaranthus rudis), kochia (Kochia scoparia), oat, wild (wild oat, Avena fatua), surinam grass (Brachiaria decumbens), foxtail, green (green foxtail, Setaria viridis), goosegrass (Eleusine indica), bromegrass, downy (downy bromegrass, Bromus tectorum), nightshade (eastern black nightshade, Solanum ptycanthum), cocklebur (common cocklebur, Xanthium strumarium), cupgrass, woolly (woolly cupgrass, Eriochloa villosa), bermudagrass (Cynodon dactylon), sunflower, (common oilseed sunflower, Helianthus annuus), Russian thistle (Salsola kali) and velvetleaf (Abutilon theophrasti) were planted into a blend of loam soil and sand and treated preemergence with test chemicals formulated in a non-phytotoxic solvent mixture which included a surfactant. At the same time, plants selected from these crop and weed species and also barley (winter barley, Hordeum vulgare), […]), chickweed (common chickweed, Stellaria media), deadnettle (henbit deadnettle, Lamium amplexicaule), and canarygrass (littleseed canarygrass, Phalaris minor) were planted in pots containing Redi-Earth® planting medium (Scotts Company, 14111 Scottslawn Road, Marysville, Ohio 43041) comprising spaghnum peat moss, vermiculite, wetting agent and starter nutrients and treated with postemergence applications of test chemicals formulated in the same manner. Plants ranged in height from 2 to 18 cm (1- to 4-leaf stage) for postemergence treatments. Treated plants and controls were maintained in a greenhouse for 13 to 15 days, after which time all species were compared to controls and visually evaluated. Plant response ratings, summarized in Table C, are based on a scale of 0 to 100 where 0 is no effect and 100 is complete control. A dash (-) response means no test result.

sedge, umbrella = assay: Test B flooded paddy test; type: in vivo, Cyperus difformis; conditions: Flood, scale of 0 to 100 where 0 is no effect and 100 is complete control
Procedure, shortened: as §1

[3] = Postemergence, 125 g ai/ha, 0 to 100 scale, 0 no effect, 100 complete control
[4] = Postemergence, 500 g ai/ha, 0 to 100 scale (0 no effect, 100 complete control)
[5] = Preemergence, 125 g ai/ha, visual rating on 0 to 100 scale (0 no effect, 100 complete control)
[6] = preemergence, 500 g ai/ha, 0 to 100 scale
[7] = Preemergence, 31 g ai/ha, scale 0 to 100, 0 is no effect and 100 is complete control
[8] = Preemergence, 62 g ai/ha, scale 0 to 100 (0 no effect, 100 complete control)
[9] = Preemergence, 125 g ai/ha, scale 0 to 100 (0 no effect, 100 complete control)
[10] = Postemergence, 125 g ai/ha, 0 to 100 scale, 0 is no effect, 100 is complete control
[11] = Preemergence, 125 g ai/ha, 0 to 100 scale where 0 is no effect and 100 is complete control
[12] = preemergence, 500 g ai/ha, 0 to 100 scale, 0 is no effect and 100 is complete control
[13] = Preemergence, 125 g ai/ha, scale 0 to 100
[14] = Postemergence, 125 g ai/ha, visual rating on 0 to 100 scale (0 no effect, 100 complete control), approx. 10 days
[15] = Preemergence, 500 g ai/ha, visual rating on 0 to 100 scale (0 no effect, 100 complete control)
[16] = 125 g ai/ha, visual rating, 0 to 100 scale, 0 no effect, 100 complete control, approximately 10 days, preemergence
[17] = Postemergence, 31 g ai/ha, scale 0 to 100 (0 no effect, 100 complete control)
[18] = Postemergence, 62 g ai/ha, scale 0 (no effect) to 100 (complete control)
[19] = Postemergence, 125 g ai/ha, scale 0 to 100 (0 no effect, 100 complete control)
[20] = Postemergence, 250 g ai/ha, scale 0 to 100 (0 no effect, 100 complete control)

Structure (SMILES)	Plant response rating, Foxtail, Giant (giant foxtail; [3])	Plant response rating, Foxtail, Giant (giant foxtail; [4])	Foxtail, Giant plant response rating (giant foxtail; [5])	Plant response rating, Foxtail, Giant (giant foxtail; [6])	Plant response rating, Barnyardgrass (barnyardgrass [2]; 500 g ai/ha)	Waterhemp plant response rating (waterhemp; [7])	Waterhemp plant response rating (waterhemp; [8])	Plant response rating, Waterhemp (waterhemp; [9])	Plant response rating (scale of 0 to 100), Waterhemp (waterhemp; Preemergence, 250 g ai/ha)	Plant response rating, Sedge, Umbrella (sedge, umbrella; 500 g ai/ha)	Plant response rating, Foxtail, Giant (giant foxtail; [10])	Plant response rating, Foxtail, Giant (giant foxtail; [11])	Plant response rating, Foxtail, Giant (giant foxtail; [12])	Plant response rating, Foxtail, Giant (giant foxtail; [14])	Foxtail, Giant plant response rating (giant foxtail; [15])	further results
O=C1NCC(c2ccc(F)c(F)c2)C1C(=O)Nc1ccccc1C(F)(F)F (racemic) [Compound 6]	70	80	90	90												
O=C1NCC(c2ccc(Cl)c(Cl)c2)C1C(=O)Nc1ccccc1F (racemic) [Compound 14]	60	80	80	90												Plant response rating, Barnyardgrass (barnyardgrass [1]; 62 g ai/ha, scale of 0 to 100 where 0 is no effect and 100 is complete control, 13 to 15 days): 0; Plant response rating, Barnyardgrass (barnyardgrass [1]; 250 g ai/ha, scale 0 to 100): 0
O=C1NCC(c2cc(F)cc(F)c2)C1C(=O)Nc1ccccc1Cl (racemic) [Compound 280]		80			65	0	65	75	35	0	70	90	90			
O=C1NCC(c2ccc(OC(F)F)cc2)C1C(=O)Nc1cccc(F)c1F (racemic) [Compound 350]		90			60		50			0		90		80	90	Plant response rating, Waterhemp (waterhemp; [13]): 90; Plant response rating, Waterhemp (waterhemp; Preemergence, 31 g ai/ha, scale 0 to 100): 0
O=C1NCC(c2cccc(OC(F)(F)F)c2)C1C(=O)Nc1ccccc1F (stereo not drawn) [Compound 69]	80	80	90	90												Plant response rating, Barnyardgrass (barnyardgrass [2]; 250 g ai/ha): 40; Plant response rating, Sedge, Umbrella (sedge, umbrella; 250 g ai/ha): 65
O=C1NCC(c2ccc(Cl)cc2)C1C(=O)Nc1cccc(F)c1F (stereo not drawn) [Compound 218]					70	30	75	90	90	0	60		90			Plant response rating, Foxtail, Giant (giant foxtail; [16]): 90; Foxtail, Giant plant response rating (0 to 100 scale, 0 is no effect, 100 is complete control) (giant foxtail; Postemergence, 500 g ai/ha): 90
O=C1NCC(c2ccc(C(F)(F)F)cc2)C1C(=O)Nc1ccccc1F (stereo not drawn) [Compound 231]					0	75	85	100	95	0	70		90			Plant response rating, Foxtail, Giant (giant foxtail; [16]): 90; Foxtail, Giant plant response rating (0 to 100 scale, 0 is no effect, 100 is complete control) (giant foxtail; Postemergence, 500 g ai/ha): 90
CN1CC(c2cccc(C(F)(F)F)c2)C(C(=O)Nc2cccc(F)c2F)C1=O (stereo not drawn) [Compound 305]		80			75	40	65	80	80	0		90		80	90	Plant response rating, Waterhemp (waterhemp; [17]): 10; Plant response rating, Waterhemp (waterhemp; [18]): 10; Plant response rating, Waterhemp (waterhemp; [19]): 35; Plant response rating, Waterhemp (waterhemp; [20]): 40
CN1CC(c2ccc(C(F)(F)F)cc2)C(C(=O)Nc2cccc(F)c2F)C1=O (stereo not drawn) [Compound 306]		80			75		85	85	90	0		90		80	90	Plant response rating, Waterhemp (waterhemp; [17]): 65; Plant response rating, Waterhemp (waterhemp; [18]): 65; Plant response rating, Waterhemp (waterhemp; [19]): 80; Plant response rating, Waterhemp (waterhemp; [20]): 80
CC(C)c1cccc(C2CNC(=O)C2C(=O)Nc2cccc(F)c2F)c1 (stereo not drawn) [Compound 319]		90			70		35			0		90		50	90	Plant response rating, Waterhemp (waterhemp; [13]): 35
